In ChEMBL document CHEMBL4417626, “Post-Translational Regulation of Catalytic Activities of Cytochrome P450 46A1 and Uses Thereof” (2017):
Active and inactive are the calls of the source. The rule behind the calls is not given here.

Legend:
[1] = target: T1, Cholesterol 24-hydroxylase (Homo sapiens, UniProt Q9Y6A2); assay: Stimulation of full-length recombinant human CYP46A1 assessed as cholesterol hydroxylation at 43 uM using cholesterol as substrate in presence of NADPH cytochrome P450 oxidoreductase by gas chromatography-mass spectrometry
Target sequence in this assay (Q9Y6A2 whole entry, looked up): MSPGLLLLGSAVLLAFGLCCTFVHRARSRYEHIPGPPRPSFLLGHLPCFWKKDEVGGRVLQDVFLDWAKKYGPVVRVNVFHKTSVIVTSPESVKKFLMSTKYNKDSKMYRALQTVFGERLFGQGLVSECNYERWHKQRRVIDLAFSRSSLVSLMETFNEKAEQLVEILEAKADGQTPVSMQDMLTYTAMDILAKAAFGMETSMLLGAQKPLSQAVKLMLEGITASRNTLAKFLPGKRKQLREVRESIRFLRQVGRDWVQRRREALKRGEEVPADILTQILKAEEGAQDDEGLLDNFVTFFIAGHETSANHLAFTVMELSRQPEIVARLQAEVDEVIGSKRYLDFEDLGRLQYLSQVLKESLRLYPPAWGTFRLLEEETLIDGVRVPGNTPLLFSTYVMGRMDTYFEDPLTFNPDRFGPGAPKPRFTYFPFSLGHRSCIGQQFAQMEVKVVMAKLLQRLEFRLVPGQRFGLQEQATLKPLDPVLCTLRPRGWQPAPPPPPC

[2] = target: T1, Cholesterol 24-hydroxylase; assay: Binding affinity to full-length recombinant human CYP46A1 by spectral binding study
Target sequence in this assay (Q9Y6A2 whole entry, looked up): as above

[3] = target: T2, Sterol 26-hydroxylase, mitochondrial (Homo sapiens) (UniProt Q02318); assay: Binding affinity to full-length recombinant human CYP27A1 assessed as induction of spectral shift up to 100 uM by spectral binding study
T2 sequence (whole entry): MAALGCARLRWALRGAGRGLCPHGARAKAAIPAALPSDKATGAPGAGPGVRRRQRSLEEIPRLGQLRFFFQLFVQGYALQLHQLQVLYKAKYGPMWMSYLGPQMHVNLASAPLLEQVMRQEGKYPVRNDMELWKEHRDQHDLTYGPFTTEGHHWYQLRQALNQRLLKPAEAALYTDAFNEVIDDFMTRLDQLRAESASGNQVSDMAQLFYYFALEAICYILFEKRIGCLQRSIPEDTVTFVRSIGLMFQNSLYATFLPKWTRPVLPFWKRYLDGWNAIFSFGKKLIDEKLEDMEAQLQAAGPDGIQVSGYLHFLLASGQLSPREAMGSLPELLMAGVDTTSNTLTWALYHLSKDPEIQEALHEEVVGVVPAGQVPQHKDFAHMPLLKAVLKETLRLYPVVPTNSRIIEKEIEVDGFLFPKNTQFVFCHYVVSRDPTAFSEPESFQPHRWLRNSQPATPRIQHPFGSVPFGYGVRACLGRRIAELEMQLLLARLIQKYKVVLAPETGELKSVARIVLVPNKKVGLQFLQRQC

[4] = system: Mus musculus; assay: In-vivo inhibition of CYP46A1 in C57/B6J mouse plasma assessed as reduction in 24S-hydroxy cholesterol at 60 mg/kg, ip dosed qd for 5 days by isotope dilution mass-spectrometry relative to control; format: functional; conditions: 120 h
[5] = species: Mus musculus; conditions: C57/B6J, 60 mg/kg
[6] = species: Mus musculus; conditions: C57/B6J, 60 mg/kg; remark: listed apart in the source
Description: In-vivo inhibition of CYP46A1 in C57/B6J mouse brain assessed as reduction in lathosterol level at 60 mg/kg, ip dosed qd for 5 days by isotope dilution mass-spectrometry relative to control

[7] = species: Mus musculus; conditions: C57/B6J, 75 mg/kg
[8] = target: T3, Cholesterol side-chain cleavage enzyme, mitochondrial (Bos taurus, UniProt P00189); assay: Binding affinity to active site of bovine CYP11A1 assessed as induction of type-II spectral response by spectral binding study; conditions: cattle
T3 sequence (P00189 whole entry): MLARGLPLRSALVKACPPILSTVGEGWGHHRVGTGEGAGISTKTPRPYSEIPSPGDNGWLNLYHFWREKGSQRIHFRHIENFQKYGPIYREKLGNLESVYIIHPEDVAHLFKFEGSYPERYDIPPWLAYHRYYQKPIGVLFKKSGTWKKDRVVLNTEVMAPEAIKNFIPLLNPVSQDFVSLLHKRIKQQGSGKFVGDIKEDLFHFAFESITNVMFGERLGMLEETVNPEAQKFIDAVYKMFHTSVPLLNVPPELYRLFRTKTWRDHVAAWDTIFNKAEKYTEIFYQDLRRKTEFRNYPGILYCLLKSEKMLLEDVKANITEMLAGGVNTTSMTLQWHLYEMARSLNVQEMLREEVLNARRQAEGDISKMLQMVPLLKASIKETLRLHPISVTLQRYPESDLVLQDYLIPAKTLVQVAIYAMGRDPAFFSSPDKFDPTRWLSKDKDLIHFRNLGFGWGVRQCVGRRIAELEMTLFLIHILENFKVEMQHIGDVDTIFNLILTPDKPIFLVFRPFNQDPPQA

[9] = target: T1, Cholesterol 24-hydroxylase; assay: Binding affinity to active site of full-length recombinant human CYP46A1 assessed as induction of type-II spectral response with minimum at 413 nm and maximum at 434 nm by spectral binding study
Target sequence in this assay (Q9Y6A2 whole entry, looked up): as the sequence (Q9Y6A2 whole entry, looked up) above

[10] = target: T1, Cholesterol 24-hydroxylase; assay: Inhibition of full-length recombinant human CYP46A1 assessed as cholesterol hydroxylation using cholesterol as substrate in presence of NADPH cytochrome P450 oxidoreductase by gas chromatography-mass spectrometry
Target sequence in this assay (Q9Y6A2 whole entry): as the sequence (Q9Y6A2 whole entry, looked up) above

In the case of `CC(=O)Nc1ccc(O)cc1`, the Activity [1] is reported as 132%.
In the case of `CC(=O)[C@H]1CC[C@H]2[C@@H]3CC=C4C[C@@H](O)CC[C@]4(C)[C@H]3CC[C@]12C`, the Activity [2] is reported as “inactive”.
`CC(=O)Nc1ccc(CO)cc1` gave an Activity [1] of 112%.
Compound `CC(=O)Nc1cccc(O)c1` has an Activity [1] of 87%.
With `CCCCOc1ccc(NC(C)=O)cc1` the Activity [1] was 107%.
`CCOc1ccc(NC(=O)CC)cc1` was tested, and the Activity [1] was 101%.
For `CC(=O)Nc1ccccc1O`, the Activity [1] was 103%.
With `C[C@@H](c1ncncc1F)[C@](O)(Cn1cncn1)c1ccc(F)cc1F` [VORICONAZOLE] the Activity [3] was “inactive”, the inhibition in vivo at 60 mg/kg [4] was 30% and the inhibition [5] was “Active”. For the same compound, the inhibition [6] was “Active”, the inhibition [7] was “Active” and the Activity [8] was “Active”. For the same compound, the Activity [9] was “Active”.
`CCOc1ccc(N)cc1` showed an Activity [1] of 50%.
`COc1ccc(NC(C)=O)cc1` was tested, and the Activity [1] was 100%.
`CC(=O)[C@H]1CC[C@H]2[C@@H]3CC=C4C[C@@H](OS(=O)(=O)O)CC[C@]4(C)[C@H]3CC[C@]12C` gave a Ki [10] of 2500 nM.
With `CC(=O)Nc1ccc(C)cc1` the Activity [1] was 112%.
